Laboratory results reported in PMC11078746 (Nature, 2024).

Legend:
HEC59 = assay: 4 day proliferation assay (CellTiter-Glo); details: Homo sapiens, 96 h, read-out: 4 day assay GI50
TGBC11TKB [1] = assay: CFA 10-14 day clonogenic assay; assay type: cell-based; details: Homo sapiens
HEC1A = assay: CFA 10-14 day clonogenic assay; assay type: cell-based; details: Homo sapiens, HEC-1-A
HCT116 cells = details: after HRO761 treatment
Protocol: Membranes were incubated overnight with the primary antibodies and for 1 h with the secondary antibodies. Washing steps were performed with 1× PBS containing 0.01% Tween-20. […] We performed the immunoblots three times except for blots shown in Figs. 2e and 4c and Extended Data Figs. 6b and 8f, which were performed twice. […] Uncropped and unprocessed scans of all blots are available as a Supplementary Figs. 1 (main text figures, which contain Figs. 2d,e, 3a,g and 4c) and 2 (Extended Data Figs. 1d,h,i, 3b–e,h,i, 5, 6a,b, 7c, 8b,g) in the Supplementary Information.

TGBC11TKB [2] = assay: 4 day proliferation assay (CellTiter-Glo); details: Homo sapiens, 96 h, read-out: 4 day assay GI50
102 common targets = assay: Safety pharmacology panel; details: all except COX1
HEC6 = assay: CFA 10-14 day clonogenic assay; assay type: cell-based; details: Homo sapiens, HEC-6
hERG = hERG (Homo sapiens, UniProt Q12809); assay: hERG binding (patch clamp)
CYP3A4 = CYP3A4 (Homo sapiens, UniProt P08684); assay: CYP3A4 TDI; assay type: in vitro ADME
JHUEM1 = assay: CFA 10-14 day clonogenic assay; assay type: cell-based; details: Homo sapiens
COX1 = COX1 (Homo sapiens, UniProt P23219); assay: Safety pharmacology panel
SNUC4 = assay: 4 day proliferation assay (CellTiter-Glo); details: Homo sapiens, SNU-C4, 96 h, read-out: 4 day assay GI50
[3] = test system: CYP (all isoforms tested); assay: CYP inhibition; assay type: in vitro ADME
CL34 = assay: CFA 10-14 day clonogenic assay; assay type: cell-based; details: Homo sapiens
SNU520 = assay: CFA 10-14 day clonogenic assay; assay type: cell-based; details: Homo sapiens
SNGM = assay: CFA 10-14 day clonogenic assay; assay type: cell-based; details: Homo sapiens

Sequence of hERG (Q12809 whole entry): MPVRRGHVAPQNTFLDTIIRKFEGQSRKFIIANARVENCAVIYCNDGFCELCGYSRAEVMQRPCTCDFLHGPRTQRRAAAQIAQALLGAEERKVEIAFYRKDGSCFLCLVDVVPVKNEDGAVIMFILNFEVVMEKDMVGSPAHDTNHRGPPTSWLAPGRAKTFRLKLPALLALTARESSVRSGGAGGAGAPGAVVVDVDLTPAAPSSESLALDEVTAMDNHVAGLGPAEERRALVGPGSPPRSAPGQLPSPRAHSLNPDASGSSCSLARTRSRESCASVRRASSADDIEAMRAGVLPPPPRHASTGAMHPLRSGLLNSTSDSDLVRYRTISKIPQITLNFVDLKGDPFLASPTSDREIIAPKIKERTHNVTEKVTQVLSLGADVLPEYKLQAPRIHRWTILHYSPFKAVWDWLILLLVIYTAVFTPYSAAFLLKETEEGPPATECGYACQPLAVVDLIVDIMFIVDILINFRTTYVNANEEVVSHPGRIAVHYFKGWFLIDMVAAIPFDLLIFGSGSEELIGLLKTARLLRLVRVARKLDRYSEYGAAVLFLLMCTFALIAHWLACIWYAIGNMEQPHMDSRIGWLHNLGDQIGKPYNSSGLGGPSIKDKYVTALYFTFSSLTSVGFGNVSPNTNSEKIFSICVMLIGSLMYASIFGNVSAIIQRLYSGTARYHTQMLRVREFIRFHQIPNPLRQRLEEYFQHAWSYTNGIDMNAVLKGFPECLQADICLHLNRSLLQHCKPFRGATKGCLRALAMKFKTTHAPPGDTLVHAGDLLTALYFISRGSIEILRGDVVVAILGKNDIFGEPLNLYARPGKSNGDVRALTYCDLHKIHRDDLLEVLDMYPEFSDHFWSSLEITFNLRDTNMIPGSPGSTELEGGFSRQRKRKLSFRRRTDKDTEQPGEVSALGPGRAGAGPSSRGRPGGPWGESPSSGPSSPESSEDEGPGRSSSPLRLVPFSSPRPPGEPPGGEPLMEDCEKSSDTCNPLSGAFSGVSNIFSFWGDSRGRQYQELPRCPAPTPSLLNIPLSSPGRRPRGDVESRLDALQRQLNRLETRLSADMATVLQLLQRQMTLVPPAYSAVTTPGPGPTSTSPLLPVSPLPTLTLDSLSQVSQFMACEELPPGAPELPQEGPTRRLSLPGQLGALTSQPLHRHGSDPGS
Sequence of CYP3A4 (P08684 whole entry, species assumed): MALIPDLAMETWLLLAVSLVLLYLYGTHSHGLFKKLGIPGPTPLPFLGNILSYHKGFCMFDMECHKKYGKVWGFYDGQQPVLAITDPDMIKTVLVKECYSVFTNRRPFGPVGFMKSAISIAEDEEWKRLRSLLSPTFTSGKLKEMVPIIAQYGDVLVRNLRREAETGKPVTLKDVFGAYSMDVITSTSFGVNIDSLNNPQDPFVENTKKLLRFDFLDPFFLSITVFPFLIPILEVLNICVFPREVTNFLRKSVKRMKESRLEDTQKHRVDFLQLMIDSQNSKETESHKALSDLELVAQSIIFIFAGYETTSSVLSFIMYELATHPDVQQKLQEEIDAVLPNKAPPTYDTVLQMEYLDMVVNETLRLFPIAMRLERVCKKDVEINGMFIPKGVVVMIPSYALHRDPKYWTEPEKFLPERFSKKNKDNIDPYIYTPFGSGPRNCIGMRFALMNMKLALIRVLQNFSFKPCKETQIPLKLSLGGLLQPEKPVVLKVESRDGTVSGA
Sequence of COX1 (P23219 24-599): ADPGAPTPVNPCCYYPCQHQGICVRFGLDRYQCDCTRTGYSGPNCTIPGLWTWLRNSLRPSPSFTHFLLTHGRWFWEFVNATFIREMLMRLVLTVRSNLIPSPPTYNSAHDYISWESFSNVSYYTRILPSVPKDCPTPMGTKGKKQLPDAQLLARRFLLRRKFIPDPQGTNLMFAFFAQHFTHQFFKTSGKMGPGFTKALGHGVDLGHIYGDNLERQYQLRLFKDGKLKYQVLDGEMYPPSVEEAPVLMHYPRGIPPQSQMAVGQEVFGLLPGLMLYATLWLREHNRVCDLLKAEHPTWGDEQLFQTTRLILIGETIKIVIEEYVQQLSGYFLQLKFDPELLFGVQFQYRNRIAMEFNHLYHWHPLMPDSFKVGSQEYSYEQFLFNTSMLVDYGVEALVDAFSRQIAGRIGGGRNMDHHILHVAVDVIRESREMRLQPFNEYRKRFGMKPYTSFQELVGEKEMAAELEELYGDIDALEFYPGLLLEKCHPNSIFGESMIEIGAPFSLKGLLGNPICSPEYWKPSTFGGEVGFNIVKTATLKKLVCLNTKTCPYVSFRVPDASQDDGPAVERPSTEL

## CCc1c(N2CCN(C(=O)c3ncnc(C)c3O)CC2)c(=O)n2nc(C3=CCOCC3)nc2n1CC(=O)Nc1ccc(C(F)(F)F)cc1Cl [HRO761]
HEC59
  GI50: ≥ 10000 nM
TGBC11TKB [1]
  GI50: 44 nM
HEC1A
  GI50: ≥ 10000 nM
HCT116 cells
  start of WRN degradation: 8 h
TGBC11TKB [2]
  GI50: 178 nM
102 common targets
  Safety pharmacology panel (102 common targets): > 30 μM
HEC6
  GI50: 16 nM
hERG
  IC50: > 30000 nM
CYP3A4
  CYP3A4 TDI: No TDI
JHUEM1
  GI50: 35 nM
COX1
  Safety pharmacology panel: COX1: 9 μM
SNUC4
  GI50: 145 nM
[3]
  IC50: > 25000 nM
CL34
  GI50: 39 nM
SNU520
  GI50: 1740 nM
SNGM
  GI50: 7290 nM
